Results on twelve compounds are retold here after ChEMBL document CHEMBL4152334, “Synthesis, molecular docking and biological evaluation of novel phthaloyl derivatives of 3-amino-3-aryl propionic acids as inhibitors of Trypanosoma cruzi trans-sialidase” (2018).

SMILES strings stand for the structures.

Test [1] has as its target T1, Trans-sialidase (Trypanosoma cruzi) (UniProt Q26964).
T1 sequence (whole entry): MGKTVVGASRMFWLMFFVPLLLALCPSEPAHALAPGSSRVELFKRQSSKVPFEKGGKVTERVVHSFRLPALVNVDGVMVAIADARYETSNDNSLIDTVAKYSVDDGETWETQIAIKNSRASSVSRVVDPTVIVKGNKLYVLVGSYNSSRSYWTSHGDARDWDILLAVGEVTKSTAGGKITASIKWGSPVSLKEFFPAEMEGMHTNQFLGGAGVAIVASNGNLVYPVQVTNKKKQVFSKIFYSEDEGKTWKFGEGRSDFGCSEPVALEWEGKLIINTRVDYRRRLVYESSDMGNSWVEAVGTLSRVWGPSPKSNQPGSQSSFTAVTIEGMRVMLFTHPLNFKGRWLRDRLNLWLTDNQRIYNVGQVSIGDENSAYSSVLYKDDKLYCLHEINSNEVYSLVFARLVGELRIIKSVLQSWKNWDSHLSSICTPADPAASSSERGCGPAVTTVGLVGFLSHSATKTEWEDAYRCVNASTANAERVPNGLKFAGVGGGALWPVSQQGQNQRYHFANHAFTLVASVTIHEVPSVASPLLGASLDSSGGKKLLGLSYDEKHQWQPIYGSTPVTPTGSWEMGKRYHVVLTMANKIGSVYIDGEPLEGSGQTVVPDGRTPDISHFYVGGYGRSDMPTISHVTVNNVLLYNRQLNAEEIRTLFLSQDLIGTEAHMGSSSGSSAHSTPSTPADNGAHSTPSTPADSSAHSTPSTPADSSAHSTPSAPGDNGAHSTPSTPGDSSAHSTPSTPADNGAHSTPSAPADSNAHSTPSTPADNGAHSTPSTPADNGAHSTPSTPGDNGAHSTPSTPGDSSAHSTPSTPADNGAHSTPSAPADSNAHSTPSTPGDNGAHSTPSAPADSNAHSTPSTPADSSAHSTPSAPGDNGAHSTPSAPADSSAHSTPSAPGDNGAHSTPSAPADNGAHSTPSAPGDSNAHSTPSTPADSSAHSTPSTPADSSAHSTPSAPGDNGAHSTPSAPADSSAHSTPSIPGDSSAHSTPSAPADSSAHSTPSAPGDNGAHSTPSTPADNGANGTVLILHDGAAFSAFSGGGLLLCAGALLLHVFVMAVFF
The test is described as follows: Inhibition of Trypanosoma cruzi trans-sialidase at 1 mM assessed as reduction of 3'-sialyl-N-acetyllactosamine formation at 1 mM using N-acetyllactosamine as substrate and 3-sialyl-lactose as donor incubated for 15 mins by HPAEC-PAD relative to control.

Test [2] has as its system Trypanosoma cruzi. In words: Trypanocidal activity against trypomastigote stage of Trypanosoma cruzi INC-5 infected in NIH mouse blood assessed as parasite lysis at 10 ug/ml after 24 hrs by optical microscopic method relative to control. Type of test: functional.
Test [3] has as its system Trypanosoma cruzi. In words: Trypanocidal activity against trypomastigote stage of Trypanosoma cruzi NINOA infected in NIH mouse blood assessed as parasite lysis at 10 ug/ml after 24 hrs by optical microscopic method relative to control. The format is functional.
Test [4] has as its system Trypanosoma cruzi. In words: Trypanocidal activity against trypomastigote stage of Trypanosoma cruzi INC-5 infected in NIH mouse blood assessed as parasite lysis after 24 hrs by optical microscopic method. The format is functional. The following applies: INC-5, Blood.
The test system of test [5] is Trypanosoma cruzi. In words: Trypanocidal activity against trypomastigote stage of Trypanosoma cruzi NINOA infected in NIH mouse blood assessed as […] parasite lysis after 24 hrs by optical microscopic method. The format is functional.

Take `O=C(O)CC(c1ccco1)N1C(=O)c2ccccc2C1=O` (stereo not given): the inhibition in test [1] amounted to 76.5%. The Activity was 21% in test [2] and 16% in test [3].
For the compound `NC(CC(=O)O)c1ccc2ccccc2c1` (stereo not given), the inhibition in test [1] came to 8.3%. Besides, the Activity in test [2] and in test [3] was 60% throughout. Moreover, the median lethal concentration (LC50) came out at 103 µM in test [4] and 98.7 µM in test [5].
Turning to `O=C(O)CC(c1ccc(O)cc1)N1C(=O)c2ccc(C(=O)O)cc2C1=O` (stereo not given), the inhibition in test [1] was 53%. Further, the Activity in test [2] is on record as 71%; in test [3], 43%.
The like results for `Cc1ccc2c(c1)C(=O)N(C(CC(=O)O)c1ccc(O)cc1)C2=O` (stereo not given) were, in that order, 82.5%, 15% and 38%.
Take `O=C(O)CC(c1ccc2ccccc2c1)N1C(=O)c2ccccc2C1=O` (stereo not given): in test [1], the inhibition was found to be 65.8%. The Activity is listed as 62% in test [2] and 57% in test [3]. Moreover, the values for the LC50 in test [4] and in test [5] were 117 µM and 97.3 µM, respectively.
The like results for `NC(CC(=O)O)c1ccc(O)cc1` (stereo not given) were, in that order, 1.4%, 76%, 50%, 127 µM and 152 µM.
Turning to `Cc1ccc2c(c1)C(=O)N(C(CC(=O)O)c1ccco1)C2=O` (stereo not given), the inhibition in test [1] worked out at 40%. The figures for the Activity in test [2] and in test [3] were 40% and 27%, respectively.
Regarding `O=C(O)CC(c1ccco1)N1C(=O)c2ccc(C(=O)O)cc2C1=O` (stereo not given), the inhibition in test [1] is 19.2%. Besides, the Activity in test [2] turned out to be 55%; in test [3] it was 77%. The figures for the LC50 in test [4] and in test [5] were 102 µM and 77.6 µM, respectively.
In the case of `O=C(O)CC(c1ccc2ccccc2c1)N1C(=O)c2ccc(C(=O)O)cc2C1=O` (stereo not given), the inhibition in test [1] stood at 66.9%. Further, the figures for the Activity in test [2] and in test [3] were 24% and 42%, respectively.
As to `NC(CC(=O)O)c1ccco1` (stereo not given), the inhibition in test [1] was 11.9%. Besides, the values for the Activity in test [2] and in test [3] were 50% and 53%, respectively. Besides, the LC50 came to 229 µM in test [4] and 99.1 µM in test [5].
Consider `Cc1ccc2c(c1)C(=O)N(C(CC(=O)O)c1ccc3ccccc3c1)C2=O` (stereo not given), for which the inhibition in test [1] stood at 86.9%. For the same compound, the values for the Activity in test [2] and in test [3] were 65% and 63%, respectively. Besides, the LC50 was 46.2 µM in test [4] and 52.7 µM in test [5].
Regarding `O=C(O)CC(c1ccc(O)cc1)N1C(=O)c2ccccc2C1=O` (stereo not given), the inhibition in test [1] is 5.6%. Further, the Activity is recorded as 68% in test [2] and 77% in test [3]. For the same compound, the values for the LC50 in test [4] and in test [5] were 91 µM and 71.4 µM, respectively.

Broadly, the inhibition is the drop in the measured response relative to a control, in per cent. As a reminder, the LC50 is the concentration that kills 50% of the test population.
